We go through one molecule from patent US9205179B2, “Broad-spectrum antimicrobial compositions based on combinations of taurolidine and protamine and medical devices containing such compositions” (Ethicon, Inc., priority 2011, dated 2015).

The test system of data set [1] is Staphylococcus aureus ACTT 6538. Briefly: In vitro bacteria attachment assay on coated mesh discs in SST medium. The data set is classed as cell-based. The note with it: serum containing media; same TU dosage alone or combined with PS. The protocol:
(§1) Taurolidine was dissolved at 4% wt./vol. in a 70% acetone 30% water vol./vol. mixture. Protamine sulfate was dissolved at 10% wt./vol. in water under warming. 50 μl of the taurolidine (TU) solution and 20 μl of the protamine (PS) solution were applied to each mesh disk using a pipette and allowed to dry at 50° C. until the majority of the liquid was gone and then stored under vacuum. First the taurolidine solution was applied, and then immediately thereafter the protamine sulfate solution was applied. The in vitro bacteria attachment assay was developed for its utility of indicating biofilm prevention potential of prototype mesh. Since bacterial attachment to a surface is the first step of biofilm formation, a surface treatment that inhibits bacterial attachment would reduce the chance of subsequent biofilm formation. The assay was conducted in SST (Serum Saline TSB) medium to mimic in vivo and clinical conditions. The formulation of SST is Tryptic Soy Broth (TSB):serum:saline in the ratio of 1:2:7. Each test article was incubated in SST inoculated with Staphylococcus aureus ACTT 6538 or Escherichia coli ATCC 25922 at about 6 Log CFU/ml. […] Viable bacteria populations were measured by plate count on TSA (Tryptic Soy agar) medium contain neutralizing agents. […]

The conditions of data set [2]: cited from earlier work.
The test system of data set [3] is Escherichia coli ATCC 25922. Put plainly: In vitro bacteria attachment assay on coated mesh discs in SST medium. Format: cell-based. The note with it: serum containing media; same TU dosage alone or combined with PS. The protocol: as §1

For the molecule `O=S1(=O)CCN(CN2CCS(=O)(=O)NC2)CN1` [TU, bis(1,1-dioxoperhydro-1,2,4-thiadiazinyl-4)-methane], in data set [1], the “Inhibition of attachment by S. aureus to treated mesh surface” value is recorded as “less inhibition than the combination”. Also, the “Cumulative dose shown to be safe and well tolerated” value in data set [2] (cumulative dose, up to and exceeding) was “exceeding 300 g”. Besides, the “Systemic dose shown to be safe and well tolerated” value in data set [2] (systemic dose) is “exceeding 40 g/day”. Also, the “Inhibition of attachment by E. coli to treated mesh surface” value in data set [3] is “less inhibition than the combination”.
